Measurements from patent publication US12569437B2, “Disease-site-specific liposomal formulation” (Osaka University, priority 2017, dated 2026).
Marks after values point to notes of the source that are not given here.

Tests used:
Assay type in all cases: in vivo
[1] = system: spontaneous dilated cardiomyopathy (J2N-k) hamster model; assay: Echocardiography (EF %, % FS) in spontaneous dilated cardiomyopathy hamsters; settings: for % FS Pre / EF % Pre: at grouping; for % FS 4 W / EF % 4 W: week 4; for % FS 8 W / EF % 8 W: week 8
Protocol: Improvement in the DDS cardiac function in the spontaneous dilated cardiomyopathy (J2N-k) hamster model by intermittent intravenous administration of Formulation 25 and compound (A) (ONO-1301) once every two weeks was evaluated by comparing the left ventricular ejection fraction (hereinafter referred to as “EF %”), left ventricular fractional shortening (hereinafter referred to as “% FS”), and histological evaluation, based on echocardiography, taken as indices. As a positive control, a group in which compound (A) (ONO-1301) was repeatedly orally administered twice daily was created.
As a test substance, Formulation 25 was used by suspending and diluting with physiological saline. Compound (A) (ONO-1301) as a control was used by dissolving in an equivalent amount of aqueous NaOH, and diluting with physiological saline. For groups of oral administration of compound (A) (ONO-1301), administration was performed as a suspension in a 0.5% CMC-Na aqueous solution.
The spontaneous dilated cardiomyopathy (J2N-k) male hamsters, 20 weeks old at the start of administration, Japan SLC, Inc., were administered with the test substances for 8 weeks, and used for comparison.
Animals arrived at the age of 18 weeks were subjected to a 2-week quarantine/acclimation period, and then to the test at the time of grouping (test start date) at the age of 20 weeks. Thereafter, tests were conducted 4 and 8 weeks after the test start date, and dissection was performed 8 weeks after the test start date.
Echocardiography was performed at the time of grouping, and at week 4 and week 8 after the start of administration. The measurement was performed 3 times for each individual, and the average value of the measured data was referred to as the measurement results.

[2] = system: rat model of ischemia by complete coronary artery ligation; assay: Infarct area evaluation in rat myocardial ischemia model; settings: 3.0 mg/kg single i.v., day 14
Protocol: Dissection was performed after the completion of the echocardiography at day 14 after the administration of the test substance. For dissection, all of the blood was collected from the abdominal aorta, and the rats were euthanized under isoflurane anesthesia; thereafter, the heart was removed and weighed. After measuring the heart weight, the infarct area, including the left and right ventricles, was divided into three parts along the short axis.
For the sections, the apical portion was removed, and the middle area was sectioned into two parts at an interval of about 2 mm. Thereafter, the infarct area of the two sections on the apical and basal sides was measured. The infarct area was evaluated based on the ratio of the infarct area to the entire left ventricular area, and the ratio of the length of the normal area or the infarct area to the left ventricular outer diameter.
[…]

[3] = system: BLM pulmonary fibrosis model mice; assay: Survival rate in BLM pulmonary fibrosis model mice; settings: day 6 to 28 after BLM
Protocol: C57BL/6NCr female mice (7 weeks old) were anesthetized with sodium pentobarbital, and then intratracheally (intrapulmonary) administered with 20 μL of a bleomycin hydrochloride aqueous solution (BLM) twice (40 μL in total per animal). In a normal group (Normal), vehicle (physiological saline) was similarly intratracheally administered.
From 6 days to 28 days after the BLM administration, the test substance was administered to compare the survival rates. As the test substances, compound (A) (ONO-1301) was repeatedly orally administration twice daily, compound (A) (ONO-1301) was intravenously administered once weekly, and compound (A) (ONO-1301) was intratracheally administered once weekly. Further, Formulation 25 (ONO-1301Lipo) was intravenously administered once weekly, and Formulation 25 (ONO-1301Lipo) was intratracheally administered once weekly to analyze the DDS effect of Formulation 25 (ONO-1301Lipo) by comparing the survival rates.
From 6 days after the preparation of the lung injury model, the vehicle and compound (A) (3 mg/kg) were repeatedly orally administered twice daily for 23 days (the administration interval between morning and afternoon was 8 hours or more).
The administration was performed 6 days after the preparation of the lung injury model; after that, tail vein intravenous administration was performed once weekly (4 times in total, i.e., 6, 13, 20, and 27 or 28 days after the preparation of the model).
The administration was performed 6 days after the preparation of the lung injury model; after that, intratracheal administration was performed once weekly (4 times in total, i.e., 6, 13, 20, and 27 or 28 days after the preparation of the model). In normal Group 9 (Normal), physiological saline was administered in a similar manner.

[4] = 3.0 mg/kg intravenous once/2 weeks

O=C(O)COc1cccc2c1CCC=C2CCO/N=C(\c1ccccc1)c1cccnc1 [Compound (A), ({5-[2-({[(1E)-phenyl(pyridin-3-yl)methylene]amino}oxy)ethyl]-7,8-dihydronaphthalen-1-yl}oxy)acetic acid]
% FS Pre [1, 4]: 16.0 ± 2.1% | EF % Pre [1, 4]: 38.8 ± 4.3% | % FS 4 W [1, 4]: 16.1 ± 3.1% | EF % 4 W [1, 4]: 35.7 ± 7.4% | % FS 8 W [1, 4]: 12.3 ± 1.3^a % | EF % 8 W [1, 4]: 30.8 ± 2.9^a % | % FS Pre ([1]; 3.0 mg/kg p.o. twice/day): 18.2 ± 3.9% | EF % Pre ([1]; 3.0 mg/kg p.o. twice/day): 43.0 ± 7.8% | % FS 4 W ([1]; 3.0 mg/kg p.o. twice/day): 17.2 ± 7.2% | EF % 4 W ([1]; 3.0 mg/kg p.o. twice/day): 40.4 ± 14.9% | % FS 8 W ([1]; 3.0 mg/kg p.o. twice/day): 17.1 ± 4.5 % | EF % 8 W ([1]; 3.0 mg/kg p.o. twice/day): 40.3 ± 9.2 % | Left ventricular area (mm^2) Infarct region ([2]; first of two sections): 18.1 ± 5.18 mm^2 | Left ventricular area (mm^2) Normal region ([2]; first of two sections): 31.1 ± 2.83 mm^2 | Left ventricular area Infarct rate (%) ([2]; first of two sections): 36 ± 8.0% | Left ventricular outer diameter (cm) Infarct region ([2]; first of two sections): 1.5 ± 0.15 cm | Left ventricular outer diameter (cm) Normal region ([2]; first of two sections): 1.7 ± 0.41 cm | Left ventricular outer diameter Infarct rate (%) ([2]; first of two sections): 46 ± 7.5% | Left ventricular area (mm^2) Infarct region ([2]; second of two sections): 14.6 ± 3.23 mm^2 | Left ventricular area (mm^2) Normal region ([2]; second of two sections): 41.0 ± 8.03 mm^2 | Left ventricular area Infarct rate (%) ([2]; second of two sections): 26 ± 2.2% | Left ventricular outer diameter (cm) Infarct region ([2]; second of two sections): 1.2 ± 0.37 cm | Left ventricular outer diameter (cm) Normal region ([2]; second of two sections): 2.3 ± 0.41 cm | Left ventricular outer diameter Infarct rate (%) ([2]; second of two sections): 34 ± 10.2% | survival rate ([3]; intratracheal 1 mg/kg once/week): 20% | survival rate ([3]; intravenous 3 mg/kg once/week): 40% | survival rate ([3]; oral 3 mg/kg twice/day): 60%
